Experimental findings from PMC9369311, “Examination of Intracellular GPCR-Mediated Signaling with High Temporal Resolution” (International Journal of Molecular Sciences, 2022) are described below.

This assay concerns the target T1, DmOctβ1 receptor (Drosophila melanogaster, UniProt Q9VCZ3).
T1 construct: expressed in transfected cells; host or cells: flpTM cells (HEK293 flpIn, Invitrogen #750-07, carrying the CNGA2 variant)
T1 sequence (Q9VCZ3 1-508): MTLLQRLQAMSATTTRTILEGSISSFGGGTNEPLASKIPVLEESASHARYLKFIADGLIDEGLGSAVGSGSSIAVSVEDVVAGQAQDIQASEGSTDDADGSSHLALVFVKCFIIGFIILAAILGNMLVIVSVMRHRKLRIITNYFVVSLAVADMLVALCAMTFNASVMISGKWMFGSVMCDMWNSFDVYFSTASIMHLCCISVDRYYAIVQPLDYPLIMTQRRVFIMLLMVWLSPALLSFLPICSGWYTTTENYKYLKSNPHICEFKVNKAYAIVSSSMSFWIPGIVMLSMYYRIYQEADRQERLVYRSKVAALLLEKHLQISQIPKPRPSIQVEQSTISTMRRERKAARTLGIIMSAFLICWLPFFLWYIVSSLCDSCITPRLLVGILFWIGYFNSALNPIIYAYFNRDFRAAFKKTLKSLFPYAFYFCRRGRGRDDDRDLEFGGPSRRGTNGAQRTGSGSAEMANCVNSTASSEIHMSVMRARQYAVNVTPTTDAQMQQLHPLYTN
Nature of the assay: Stopped-flow Ca2+ fluorescence measurements, flpTM-DmOctβ1 cells, octopamine. The class given is cell-based. Here is the method:
In successive stopped-flow measurements, the flpTM-DmOctβ1 cells loaded with Fluo-4 were stimulated with increasing octopamine (1 nM–3 µM) and NKH477 (100 nM–300 µM) concentrations. The fluorescence intensities were monitored over 80 s and 100 s, respectively (Figure 4A1,B1). The fluorescence intensities increased and finally reached a plateau with increasing concentrations of both of the ligands. However, the saturating ligand concentrations differed strongly between octopamine (≥300 nM) and NKH477 (≥100 µM). By plotting the maximal changes in fluorescence (ΔF/F0) against ligand concentrations, concentration–response curves were generated and EC50 values were calculated (Figure 4C). […] As observed for the DmOctα1B cell lines (see Figure 3D), the signal response times of flpTM-DmOctβ1 cells were faster at higher ligand concentrations (Figure 4A2,B2). In Figure 4D, the time until the signals were detected (for details, see Materials and Methods, Section 4.4) are plotted for the ligand concentrations covering the calculated EC50 value (dynamic range) and for saturating concentrations (saturating range). The signal response times of the flpTM-DmOctβ1 cells for octopamine were in the range of 30 s (dynamic range) and 6 s (saturating range), whereas the signal detection upon NKH477 application was observed after 50 s (dynamic range) and 16 s (saturating range). The signal response times were about three- to five-fold faster at the saturating concentrations in comparison to the octopamine and NKH477 concentrations in the dynamic range.
As described for the Fluo-4-loaded flpTM-DmOctβ1 cells, similar experiments were performed with the flpTM-DmOctβ1-GCaMP3.0 cells (Figure 5). The cells were successively mixed with increasing concentrations of octopamine (30 pM–100 nM) or NKH477 (30 nM–100 µM) and the fluorescence intensities were recorded over 100 s. For both of the ligands, increasing ligand concentrations led to an increase in the fluorescence emission finally reaching a plateau (Figure 5A1,B1).
For the stopped-flow measurements, the SFM-400 system (BioLogic, Münster, Germany) was used. The main component of the stopped-flow setup is the SFM-400 module with four 10 mL syringes, which can be filled by external valves. The syringes are driven by step motors. The reactants can be mixed in three individual mixing chambers (M1–M3). The volume between M1 and M2 is 21 µL, and 31 µL between M2 and M3. The observation chamber is a quartz cuvette (FC-15) with a reaction volume of 31 µL, installed behind M3. To avoid fluctuations of the reaction mixture in the cuvette, which might lead to noisy and inconsistent signals, a hard stop valve located behind the cuvette can be closed after injection of the reactants. The stopped-flow module is controlled via a MPS-60 control unit (BioLogic). Data acquisition and operation of the system were performed with the Bio-Kine 32 v4.74 software (BioLogic).
The reactions in the cuvette were analyzed via the changes in the fluorescence. A 150 W Xe/Hg-lamp (ALX-220; BioLogic) was used as a light source for the excitation. The excitation light was guided via a light guide towards the cuvette. To determine the wavelength of the excitation light, a 482 nm bandpass filter (482/35 nm BrightLine® single-band bandpass filter; Semrock, Rochester, NY, USA) was used. A heat protection filter (3 mm; KG1, Schott; Mainz, Germany) was placed between the Xe/Hg-lamp and the excitation filter. The fluorescence was detected with a photomultiplier (PMS 200, BioLogic) installed rectangularly to the light path of the excitation light. Between the cuvette and the photomultiplier tube a 535 nm bandpass emission filter (XF3007 535AF35; Horiba, Oberursel, Germany) was placed to select for the emission light being detected by the photomultiplier. A voltage of 600 V was applied to the photomultiplier.
The fluorescence measurements were performed either directly with the cells expressing GCaMP3.0 or after loading the cells with Fluo-4-AM. […]

Structures are written as SMILES. Several values for one entry are separate records, joined by “and”; a condition that tells them apart may be missing. Equal values may be shown once.

On to `NCC(O)c1ccc(O)cc1` (stereo not drawn) [octopamine], for which the Signal Response Time is, setting by setting: (dynamic range (concentrations around EC50), flpTM-DmOctβ1 cells loaded with Fluo-4) about 30 s; (saturating concentration, flpTM-DmOctβ1-GCaMP3.0 cells, mean ± SEM) about 6 s; (saturating concentration, flpTM-DmOctβ1-GCaMP3.0 cells, mean ± SEM, listed as Octopamine) 6.00 ± 0.20 s; (saturating concentration, flpTM-DmOctβ1 cells loaded with Fluo-4, mean ± SEM) about 6 s; (saturating concentration, flpTM-DmOctβ1 cells loaded with Fluo-4, mean ± SEM, listed as Octopamine) 6.00 ± 0.13 s; (saturating ligand concentration, flpTM-DmOctβ1 cell lines, Fluo-4 and GCaMP3.0) 6 s and ≈ 6 s. Moreover, the EC50 is, setting by setting: (stopped-flow, flpTM-DmOctβ1-GCaMP3.0 cells, mean ± SEM) ~1.8 nM and 1.78 nM and 1.8 nM; (stopped-flow, flpTM-DmOctβ1 cells loaded with Fluo-4, mean ± SEM) ~22 nM and 22 nM. Also, the saturating ligand concentration (stopped-flow, flpTM-DmOctβ1 cells loaded with Fluo-4) is listed as at least 300 nM.

For orientation: EC50 means the concentration that produces a half-maximal response. The low end stands for a more potent agent, the high end for a less potent agent.
